Non-standard residues stand in square brackets, D forms with d. Residues, ends and D or L forms follow the SMILES beside them. MeBmt = C/C=C/C[C@@H](C)[C@@H](O)[C@H](NC)C(=O)O; NMeL = CN[C@@H](CC(C)C)C(=O)O; NMeV = CN[C@H](C(=O)O)C(C)C; dNMeA = CN[C@H](C)C(=O)O

One data set relates to MT4 cells. Description: Cytotoxicity in MT4-cells (MTT).
Conditions: not given
The method, then: To evaluate the anti-HIV potential in additional cell lines and particularly in a monocytic cell line (U937), cellular toxicity of the test compound to these cell lines is first assessed. Jurkat and U937 cell suspensions are adjusted to 1×10^5 cells/ml and incubated in the presence of various concentrations of test compound. After 48 hours the amounts of cells per ml are compared by staining with MTT. Cytoxicity in MT4 cells may be measured in the same way.
The significance of these numbers and the appropriate methods are discussed supra.
As for `C/C=C/C[C@@H](C)[C@@H](O)[C@H]1C(=O)N[C@@H](CC)C(=O)N(C)CC(=O)N(C)[C@@H](CC(C)C)C(=O)N[C@@H](C(C)C)C(=O)N(C)[C@@H](C)C(=O)N[C@@H](C)C(=O)N[C@H](C)C(=O)N(C)[C@@H](CC(C)C)C(=O)N(C)[C@@H](CC(C)C)C(=O)N(C)[C@@H](C(C)C)C(=O)N1C` [Compound k), [MeAla]^6 -Ciclosporin], the Cytotoxicity turned out to be 5.2 µg/mL.
In turn, `C/C=C/C[C@@H](C)[C@@H](O)[C@H]1C(=O)N[C@@H](CC)C(=O)N(C)CC(=O)N(C)[C@@H](CC(C)C)C(=O)N[C@@H](C(C)C)C(=O)N(C)[C@@H](CC(C)C)C(=O)N[C@@H](C)C(=O)N[C@H](C)C(=O)N(C)[C@@H](CC(C)(C)O)C(=O)N(C)[C@@H](CC(C)C)C(=O)N(C)[C@@H](C(C)C)C(=O)N1C` [l), [γ-hydroxy-MeLeu]^9 -Ciclosporin] came in with a Cytotoxicity of over 10 µg/mL.
Consider `C/C=C/C[C@@H](C)[C@@H](O)[C@H]1C(=O)N[C@@H](CCC)C(=O)N(C)CC(=O)N(C)[C@@H](CC(C)(C)O)C(=O)N[C@@H](C(C)C)C(=O)N(C)[C@@H](CC(C)C)C(=O)N[C@@H](C)C(=O)N[C@H](C)C(=O)N(C)[C@@H](CC(C)C)C(=O)N(C)[C@@H](CC(C)C)C(=O)N(C)[C@@H](C(C)C)C(=O)N1C` [Compound f), [Nva]^2-[γ-hydroxy-MeLeu]^4 -Ciclosporin], for which the Cytotoxicity was 14.0 µg/mL.
The same measure, in the same setting: the result for `C/C=C/C[C@@H](C)[C@@H](O)[C@H]1C(=O)N[C@@H]([C@@H](C)OC)C(=O)N(C)[C@H](C)C(=O)N(C)[C@@H](CC(C)C)C(=O)N(C)[C@@H](C(C)C)C(=O)N(C)[C@@H](CC(C)C)C(=O)N[C@@H](C)C(=O)N[C@H](C)C(=O)N(C)[C@@H](CC(C)C)C(=O)N(C)[C@@H](CC(C)C)C(=O)N(C)[C@@H](C(C)C)C(=O)N1C` [Compound i), [MeOThr]^2-[(D)MeAla]^3-[MeVal]^5 -Ciclosporin] (cyclo(A[dA][NMeL][NMeL][NMeV][MeBmt]T(Me)[dNMeA][NMeL][NMeV][NMeL])) reads over 10 µg/mL.
On the same count and under the same terms, next, `CCCC[C@@H](C)[C@@H](O)[C@H]1C(=O)N[C@@H](CC)C(=O)N(C)CC(=O)N(C)[C@@H](CC(C)(C)O)C(=O)N[C@@H](C(C)C)C(=O)N(C)[C@@H](CC(C)C)C(=O)N[C@@H](C)C(=O)N[C@H](C)C(=O)N(C)[C@@H](CC(C)C)C(=O)N(C)[C@@H](CC(C)C)C(=O)N(C)[C@@H](C(C)C)C(=O)N1C` [Compound a), [dihydro-MeBmt]^1-[γ-hydroxy-MeLeu]^4 -Ciclosporin]: 16.3 µg/mL; `C/C=C/C[C@@H](C)[C@@H](O)[C@H]1C(=O)N[C@@H](CC)C(=O)N(C)CC(=O)N(C)[C@@H](CC(C)C)C(=O)N(C)[C@@H](C(C)C)C(=O)N(C)[C@@H](CC(C)C)C(=O)N[C@@H](C)C(=O)N[C@H](C)C(=O)N(C)[C@@H](CC(C)C)C(=O)N(C)[C@@H](CC(C)C)C(=O)N(C)[C@@H](C(C)C)C(=O)N1C` [Compound h), [MeVal]^5 -Ciclosporin]: 4.4 µg/mL.
The same measure, in the same setting: the result for `C/C=C/C[C@@H](C)[C@@H](O)[C@H]1C(=O)N[C@@H](CC)C(=O)N(C)CC(=O)N(C)[C@@H](CC(C)(C)O)C(=O)N[C@@H](C(C)C)C(=O)N(C)[C@@H](CC(C)C)C(=O)N[C@@H](C)C(=O)N[C@H](C)C(=O)N(C)[C@@H](CC(C)C)C(=O)N(C)[C@@H](CC(C)C)C(=O)N(C)[C@@H](C(C)C)C(=O)N1C` [Compound e), [γ-hydroxy-MeLeu]^4 -Ciclosporin] reads 15.5 µg/mL.
Compound `CC[C@@H]1NC(=O)[C@H]([C@H](O)[C@H](C)C/C=C/CO)N(C)C(=O)[C@H](C(C)C)N(C)C(=O)[C@H](CC(C)C)N(C)C(=O)[C@H](CC(C)C)N(C)C(=O)[C@@H](C)NC(=O)[C@H](C)NC(=O)[C@H](CC(C)C)N(C)C(=O)[C@H](C(C)C)NC(=O)[C@H](CC(C)C)N(C)C(=O)CN(C)C1=O` [Compound j), [8'-hydroxy-MeBmt]^1 -Ciclosporin] came in with a Cytotoxicity of 10.6 µg/mL.

Still in this data set, the particulars now being: MT4-cells, MTT staining.
Compound `C/C=C/C[C@@H](C)[C@@H](O)[C@H]1C(=O)N[C@@H](CC)C(=O)N(C)CC(=O)N(C)[C@@H](C(C)C)C(=O)N[C@@H](C(C)C)C(=O)N(C)[C@@H](CC(C)C)C(=O)N[C@@H](C)C(=O)N[C@H](C)C(=O)N(C)[C@@H](CC(C)C)C(=O)N(C)[C@@H](CC(C)C)C(=O)N(C)[C@@H](C(C)C)C(=O)N1C` [Compound b), [MeVal]^4 -Ciclosporin] came in with a Cytotoxicity of 5.4 µg/mL.
Still for that read-out and setting: the result for `C/C=C/C[C@@H](C)[C@@H](O)[C@H]1C(=O)N[C@@H](CC)C(=O)N(C)CC(=O)N(C)[C@@H]([C@@H](C)CC)C(=O)N[C@@H](C(C)C)C(=O)N(C)[C@@H](CC(C)C)C(=O)N[C@@H](C)C(=O)N[C@H](C)C(=O)N(C)[C@@H](CC(C)C)C(=O)N(C)[C@@H](CC(C)C)C(=O)N(C)[C@@H](C(C)C)C(=O)N1C` [Compound c), [MeIle]^4 -Ciclosporin] reads 4.5 µg/mL.
